Data from ChEMBL document CHEMBL3734673, “Potent chemical chaperone compounds for GM1-gangliosidosis: N-substituted (+)-conduramine F-4 derivatives” (Medchemcomm, 2015).
Numbering of substitutions follows the chain as printed. Active and inactive are the calls of the source. The calls are words filed in the database; no cut-off is given here.

Experiments:
Beta-galactosidase = target: T1, Beta-galactosidase (Homo sapiens, UniProt P16278); assay: Inhibition of human beta-galactosidase expressed in mouse fibroblasts using 4-methylumbelliferone -conugated beta-D-galactoside as substrate incubated for 30 mins at pH 4.5 followed by substrate addition by fluorescence analysis
T1 sequence (P16278 whole entry): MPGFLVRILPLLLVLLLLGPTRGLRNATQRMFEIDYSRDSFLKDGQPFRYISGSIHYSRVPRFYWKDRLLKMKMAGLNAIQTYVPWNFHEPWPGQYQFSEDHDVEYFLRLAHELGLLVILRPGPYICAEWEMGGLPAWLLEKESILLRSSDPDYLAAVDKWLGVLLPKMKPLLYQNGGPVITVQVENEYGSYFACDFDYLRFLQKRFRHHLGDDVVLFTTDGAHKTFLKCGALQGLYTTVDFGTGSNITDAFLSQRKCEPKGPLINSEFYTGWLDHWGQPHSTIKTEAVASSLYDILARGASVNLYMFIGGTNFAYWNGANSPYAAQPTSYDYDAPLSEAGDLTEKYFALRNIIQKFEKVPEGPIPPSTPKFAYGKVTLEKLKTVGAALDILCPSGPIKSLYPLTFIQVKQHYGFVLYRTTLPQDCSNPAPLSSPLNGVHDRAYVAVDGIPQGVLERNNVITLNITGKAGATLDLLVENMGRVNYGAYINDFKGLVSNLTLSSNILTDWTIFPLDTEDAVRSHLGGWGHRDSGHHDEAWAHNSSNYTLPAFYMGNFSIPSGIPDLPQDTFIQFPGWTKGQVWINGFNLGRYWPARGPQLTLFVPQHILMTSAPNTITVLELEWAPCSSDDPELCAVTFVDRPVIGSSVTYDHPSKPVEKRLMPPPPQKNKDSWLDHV

[1] = test system: T2, Beta-galactosidase (Homo sapiens), P16278 [R201C]; assay: Activation of human beta-galactosidase R201C mutant expressed in mouse fibroblasts using 4-methylumbelliferone -conugated beta-D-galactoside as substrate at 20 uM preincubated for 48 hrs followed by substrate addition measured after 30 mins by fluorescence analysis relative to control
T2 sequence (whole entry): T1 sequence (P16278 whole entry) with R201C

[2] = test system: T2, Beta-galactosidase (Homo sapiens), P16278 [R201C]; assay: Activation of human beta-galactosidase R201C mutant expressed in mouse fibroblasts using 4-methylumbelliferone -conugated beta-D-galactoside as substrate at 2 uM preincubated for 48 hrs followed by substrate addition measured after 30 mins by fluorescence analysis relative to control
[3] = test system: T2, Beta-galactosidase (Homo sapiens), P16278 [R201C]; assay: Activation of human beta-galactosidase R201C mutant expressed in mouse fibroblasts using 4-methylumbelliferone -conugated beta-D-galactoside as substrate at 0.2 uM preincubated for 48 hrs followed by substrate addition measured after 30 mins by fluorescence analysis relative to control
[4] = target: T3, Lysosomal acid glucosylceramidase (Homo sapiens, UniProt P04062); assay: Inhibition of human beta-glucosidase isolated from human fibroblasts incubated for 30 mins using […] analysis
T3 sequence (P04062 whole entry): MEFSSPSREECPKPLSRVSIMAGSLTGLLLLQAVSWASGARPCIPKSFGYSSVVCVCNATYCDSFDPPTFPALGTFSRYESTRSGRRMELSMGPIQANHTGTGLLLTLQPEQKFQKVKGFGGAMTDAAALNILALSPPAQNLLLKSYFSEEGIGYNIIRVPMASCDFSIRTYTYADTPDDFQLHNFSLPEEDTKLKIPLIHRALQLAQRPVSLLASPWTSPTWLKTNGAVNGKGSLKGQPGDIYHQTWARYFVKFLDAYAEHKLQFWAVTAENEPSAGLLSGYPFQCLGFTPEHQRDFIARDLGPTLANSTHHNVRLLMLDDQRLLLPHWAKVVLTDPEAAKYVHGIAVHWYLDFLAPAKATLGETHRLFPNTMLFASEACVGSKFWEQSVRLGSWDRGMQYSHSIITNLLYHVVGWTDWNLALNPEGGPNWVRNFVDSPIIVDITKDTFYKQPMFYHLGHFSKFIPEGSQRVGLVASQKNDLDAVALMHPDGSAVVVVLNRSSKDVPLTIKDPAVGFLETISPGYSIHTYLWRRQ

[5] = Inhibition of human alpha-galactosidase isolated from human fibroblasts incubated for 30 mins using […] analysis
[6] = target: T4, Beta-galactosidase (Bos taurus) (UniProt Q58D55); assay: Inhibition of bovine liver beta-galactosidase using p-nitrophenyl-beta-D-galactopyranoside as substrate preincubated with substrate followed by protein addition measured after 30 mins by microplate reader analysis
T4 sequence (whole entry): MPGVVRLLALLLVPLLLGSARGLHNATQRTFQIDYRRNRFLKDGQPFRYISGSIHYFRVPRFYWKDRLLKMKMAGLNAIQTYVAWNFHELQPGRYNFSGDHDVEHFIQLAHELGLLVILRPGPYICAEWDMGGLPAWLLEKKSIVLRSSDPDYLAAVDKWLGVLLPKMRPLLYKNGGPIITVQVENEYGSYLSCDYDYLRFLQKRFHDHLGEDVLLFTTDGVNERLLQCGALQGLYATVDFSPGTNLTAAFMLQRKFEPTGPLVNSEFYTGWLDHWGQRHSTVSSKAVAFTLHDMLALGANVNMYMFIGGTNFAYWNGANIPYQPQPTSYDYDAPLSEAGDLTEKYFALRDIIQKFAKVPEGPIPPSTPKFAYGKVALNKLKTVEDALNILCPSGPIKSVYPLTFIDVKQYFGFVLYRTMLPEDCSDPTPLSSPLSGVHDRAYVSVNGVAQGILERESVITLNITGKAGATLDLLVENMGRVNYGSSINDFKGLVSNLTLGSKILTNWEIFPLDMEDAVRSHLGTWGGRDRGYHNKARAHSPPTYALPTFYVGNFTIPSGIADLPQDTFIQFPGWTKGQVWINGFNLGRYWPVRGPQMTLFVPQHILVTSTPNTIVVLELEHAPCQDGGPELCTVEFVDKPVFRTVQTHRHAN

Prunus dulcis = assay: Inhibition of almond beta-glucosidase using p-nitrophenyl-beta-D-glucopyranoside as substrate preincubated with substrate followed by protein addition measured after 30 mins by microplate reader analysis
[7] = Cytotoxicity against human fibroblasts at 200 uM by LDH assay; format: cell-based; details: fibroblast
[8] = Cytotoxicity against human fibroblasts at 20 uM by LDH assay; format: cell-based; details: fibroblast

| SMILES | IC50 (Beta-galactosidase) [µM] | fold change (FC) [1] | Activity [2] | Activity [3] | IC50 [4] [µM] | IC50 [5] [µM] | inhibition [6] | inhibition (Prunus dulcis) | Activity [7] [%] | Activity [8] [%] | fold change (FC) [2] |
| --- | --- | --- | --- | --- | --- | --- | --- | --- | --- | --- | --- |
| CCCCCCCCN[C@@H]1C=C(C)[C@H](O)[C@H](O)[C@H]1O | 46 | 5.2 | Active | Active | > 1000 | > 1000 |  |  |  |  |  |
| CCCCCN[C@@H]1C=C[C@H](O)[C@H](O)[C@H]1O.Cl | 19 | 4 |  |  | > 1000 | > 1000 | Active | Active | < 10 |  |  |
| Cl.O[C@@H]1[C@@H](O)[C@H](NCC2CCCCC2)C=C[C@@H]1O | 60 | 8.5 |  |  | > 1000 | > 1000 | Active | Active | 3.8 | 0.7 |  |
| CCC(CC)CN[C@@H]1C=C[C@H](O)[C@H](O)[C@H]1O.Cl | 15 | 7.4 |  |  | > 1000 | > 1000 | Active | Active | < 10 |  |  |
| CC(C)CN[C@@H]1C=C[C@H](O)[C@H](O)[C@H]1O.Cl | 41 | 4.6 |  |  | > 1000 | > 1000 | Active | Active | < 10 |  |  |
| CCCCCCCCN[C@@H]1C=C[C@H](O)[C@H](O)[C@H]1O.Cl | 120 | 5.4 | Active | Active | > 1000 | > 1000 | Active | Active | 25 |  |  |
| CC(C)CCN[C@@H]1C=C[C@H](O)[C@H](O)[C@H]1O.Cl | 28 | 4.6 |  |  | > 1000 | > 1000 | Active | Active | < 10 |  |  |
| Cl.O[C@@H]1[C@@H](O)[C@H](NC2CCCCC2)C=C[C@@H]1O | 490 | 1.4 |  |  | > 1000 | > 1000 | Active | Active | < 10 |  |  |
| CCCCCCCCN[C@@H]1C=C(CO)[C@H](O)[C@H](O)[C@H]1O.Cl | 1.7 | 3.6 |  |  | > 1000 | > 1000 |  |  | 7.5 | 1.1 | 4.6 |
| Cl.OCCCN[C@@H]1C=C[C@H](O)[C@H](O)[C@H]1O | > 1000 | 0.9 |  |  | > 1000 | > 1000 | Active | Active | < 10 |  |  |
| CCCCCCCCCCN[C@@H]1C=C[C@H](O)[C@H](O)[C@H]1O.Cl | 43 | 1.6 |  |  | > 1000 | > 1000 | Active | Active | 54 | 24 |  |
| CCCCCCN[C@@H]1C=C[C@H](O)[C@H](O)[C@H]1O.Cl | 56 | 4.6 |  |  | > 1000 | > 1000 | Active | Active | < 10 |  |  |
| CCC(CC)N[C@@H]1C=C[C@H](O)[C@H](O)[C@H]1O.Cl | > 1000 | 1.2 |  |  | > 1000 | > 1000 | Active | Active | < 10 |  |  |
| CCCCN[C@@H]1C=C[C@H](O)[C@H](O)[C@H]1O.Cl | 50 | 2 |  |  | > 1000 | > 1000 | Active | Active | < 10 |  |  |
| Cl.O[C@@H]1[C@@H](O)[C@H](NCCc2ccccc2)C=C[C@@H]1O | 86 | 4.2 |  |  | > 1000 | > 1000 | Active | Active | < 10 |  |  |
| Cl.O[C@@H]1[C@@H](O)[C@H](NCc2ccccc2)C=C[C@@H]1O | 180 | 1.5 |  |  | > 1000 | > 1000 | Active | Active | < 10 |  |  |
